Data from ChEMBL document CHEMBL4622932, “Design, synthesis and biological evaluation of new Myo-inositol derivatives as potential RAS inhibitors” (Bioorg Med Chem Lett, 2020).

How the values were obtained:
[1] = test system: MDA-MB-231; test: Induction of apoptosis in human MDA-MB-231 cells assessed as necrotic cells at 15 uM measured after 48 hrs by annexinV-FITC/propidium iodide staining based flow cytometry (reference value: 0.31 %); assay type: functional
[2] = test system: MCF7; test: Induction of apoptosis in human MCF7 cells assessed as live cells at 25 uM measured after 48 hrs by annexinV-FITC/propidium iodide staining based flow cytometry (reference value: 99.71 %); assay type: functional
[3] = target: GTPase KRas (Homo sapiens) (UniProt P01116); test: Inhibition of KRAS in human MDA-MB-231 cells assessed as reduction in Pan RAS protein level at 15 uM measured after 24 hrs by Western blot analysis relative to control; assay type: cell-based
[4] = test system: MCF7; test: Induction of apoptosis in human MCF7 cells assessed as necrotic cells at 15 uM measured after 48 hrs by annexinV-FITC/propidium iodide staining based flow cytometry (reference value: 0.08 %); assay type: functional
[5] = test system: MDA-MB-231; test: Induction of apoptosis in human MDA-MB-231 cells assessed as early apoptotic cells at 15 uM measured after 48 hrs by annexinV-FITC/propidium iodide staining based flow cytometry (reference value: 0.69 %); assay type: functional
[6] = test system: MDA-MB-231; test: Cell cycle arrest in human MDA-MB-231 cells assessed as accumulation at G2 phase at 25 uM measured after 48 hrs by propidium iodide/RNase staining based flow cytometry (reference value: 3.35 %); assay type: functional
[7] = test system: MDA-MB-231; test: Cell cycle arrest in human MDA-MB-231 cells assessed as accumulation at G1 phase at 25 uM measured after 48 hrs by propidium iodide/RNase staining based flow cytometry (reference value: 74.56 %); assay type: functional
[8] = target: GTPase KRas (Homo sapiens) (UniProt P01116); test: Inhibition of KRAS in human MCF7 cells assessed as reduction in MEK1/2 9G3 protein level at 25 uM measured after 24 hrs by Western blot analysis relative to control; assay type: cell-based
[9] = target: GTPase KRas (Homo sapiens) (UniProt P01116); test: Inhibition of KRAS in human MDA-MB-231 cells assessed as reduction in phosphorylation of ERK measured after 24 hrs by Western blot analysis; assay type: cell-based
[10] = target: GTPase KRas (Homo sapiens) (UniProt P01116); test: Inhibition of KRAS in human MDA-MB-231 cells assessed as reduction in phosphorylated ERK1/2 at Thr185/Tyr187 residues protein level at 25 uM measured after 24 hrs by Western blot analysis relative to control; assay type: cell-based
[11] = target: GTPase KRas (Homo sapiens) (UniProt P01116); test: Inhibition of KRAS in human MDA-MB-231 cells assessed as reduction in phosphorylated MEK1/2 at Ser217/221 residues protein level at 15 uM measured after 24 hrs by Western blot analysis relative to control; assay type: cell-based
[12] = test system: MDA-MB-231; test: Antiproliferative activity against human MDA-MB-231 cells reduction in cell viability measured after 48 hrs by MTT assay; assay type: functional, cell-based
[13] = target: GTPase KRas (Homo sapiens) (UniProt P01116); test: Inhibition of KRAS in human MCF7 cells assessed as reduction in phosphorylated RAF-1 E1 protein level at 35 uM measured after 24 hrs by Western blot analysis relative to control; assay type: cell-based
[14] = target: GTPase KRas (Homo sapiens) (UniProt P01116); test: Inhibition of KRAS in human MCF7 cells assessed as reduction in ERK1/2 137F5 protein level at 15 uM measured after 24 hrs by Western blot analysis relative to control; assay type: cell-based
[15] = test system: HEK-293T; test: Cytotoxicity against human 293T cells assessed as reduction in cell viability measured after 48 hrs by MTT assay; assay type: cell-based
[16] = test system: MCF7; test: Induction of apoptosis in human MCF7 cells assessed as early apoptotic cells at 15 uM measured after 48 hrs by annexinV-FITC/propidium iodide staining based flow cytometry (reference value: 0.04 %); assay type: functional
[17] = test system: MDA-MB-231; test: Cell cycle arrest in human MDA-MB-231 cells assessed as accumulation at G1 phase at 15 uM measured after 48 hrs by propidium iodide/RNase staining based flow cytometry (reference value: 74.56 %); assay type: functional
[18] = target: GTPase KRas (Homo sapiens) (UniProt P01116); test: Inhibition of KRAS in human MDA-MB-231 cells assessed as reduction in phosphorylated MEK1/2 at Ser217/221 residues protein level at 35 uM measured after 24 hrs by Western blot analysis relative to control; assay type: cell-based
[19] = target: GTPase KRas (Homo sapiens) (UniProt P01116); test: Inhibition of KRAS in human MDA-MB-231 cells assessed as reduction in phosphorylated RAF-1 E1 protein level at 35 uM measured after 24 hrs by Western blot analysis relative to control; assay type: cell-based
[20] = target: GTPase KRas (Homo sapiens) (UniProt P01116); test: Inhibition of KRAS in human MDA-MB-231 cells assessed as reduction in ERK1/2 137F5 protein level at 35 uM measured after 24 hrs by Western blot analysis relative to control; assay type: cell-based
[21] = test system: MCF7; test: Induction of apoptosis in human MCF7 cells assessed as early apoptotic cells at 25 uM measured after 48 hrs by annexinV-FITC/propidium iodide staining based flow cytometry (reference value: 0.04 %); assay type: functional
[22] = target: GTPase KRas (Homo sapiens) (UniProt P01116); test: Inhibition of KRAS in human MDA-MB-231 cells assessed as reduction in MEK1/2 9G3 protein level at 25 uM measured after 24 hrs by Western blot analysis relative to control; assay type: cell-based
[23] = target: GTPase KRas (Homo sapiens) (UniProt P01116); test: Inhibition of KRAS in human MDA-MB-231 cells assessed as reduction in phosphorylated ERK1/2 at Thr185/Tyr187 residues protein level at 15 uM measured after 24 hrs by Western blot analysis relative to control; assay type: cell-based
[24] = target: GTPase KRas (Homo sapiens) (UniProt P01116); test: Inhibition of KRAS in human MCF7 cells assessed as reduction in phosphorylated MEK1/2 at Ser217/221 residues protein level at 35 uM measured after 24 hrs by Western blot analysis relative to control; assay type: cell-based
[25] = test system: MDA-MB-231; test: Induction of apoptosis in human MDA-MB-231 cells assessed as live cells at 25 uM measured after 48 hrs by annexinV-FITC/propidium iodide staining based flow cytometry (reference value: 99 %); assay type: functional
[26] = target: GTPase KRas (Homo sapiens) (UniProt P01116); test: Inhibition of KRAS in human MCF7 cells assessed as reduction in Pan RAS protein level at 15 uM measured after 24 hrs by Western blot analysis relative to control; assay type: cell-based
[27] = test system: MDA-MB-231; test: Induction of apoptosis in human MDA-MB-231 cells assessed as early apoptotic cells at 25 uM measured after 48 hrs by annexinV-FITC/propidium iodide staining based flow cytometry (reference value: 0.69 %); assay type: functional
[28] = target: GTPase KRas (Homo sapiens) (UniProt P01116); test: Inhibition of KRAS in human MCF7 cells assessed as reduction in phosphorylated ERK1/2 at Thr185/Tyr187 residues protein level at 15 uM measured after 24 hrs by Western blot analysis relative to control; assay type: cell-based
[29] = target: GTPase KRas (Homo sapiens) (UniProt P01116); test: Inhibition of KRAS in human MDA-MB-231 cells assessed as reduction in phosphorylated ERK1/2 at Thr185/Tyr187 residues protein level at 35 uM measured after 24 hrs by Western blot analysis relative to control; assay type: cell-based
[30] = test system: MDA-MB-231; test: Induction of apoptosis in human MDA-MB-231 cells assessed as late apoptotic cells at 25 uM measured after 48 hrs by annexinV-FITC/propidium iodide staining based flow cytometry (reference value: 0 %); assay type: functional
[31] = target: GTPase KRas (Homo sapiens) (UniProt P01116); test: Inhibition of KRAS in human MDA-MB-231 cells assessed as reduction in Pan RAS protein level at 35 uM measured after 24 hrs by Western blot analysis relative to control; assay type: cell-based
[32] = test system: MDA-MB-231; test: Induction of apoptosis in human MDA-MB-231 cells assessed as live cells at 15 uM measured after 48 hrs by annexinV-FITC/propidium iodide staining based flow cytometry (reference value: 99 %); assay type: functional
[33] = target: GTPase KRas (Homo sapiens) (UniProt P01116); test: Inhibition of KRAS in human MCF7 cells assessed as reduction in Pan RAS protein level at 25 uM measured after 24 hrs by Western blot analysis relative to control; assay type: cell-based

O=P(Oc1ccccc1)(Oc1ccccc1)OC1C2OC3(c4ccccc4)OC(C2O)C(O)C1O3 (centres undefined)
Activity [1]: 7.3% | Activity [2]: 36.83% | fold change (FC) [3]: 1.16 | Activity [4]: 66.88% | Activity [5]: 0.39% | Activity [6]: 0% | Activity [7]: 59.93% | fold change (FC) [8]: 1.06 | inhibition [9]: Dose-dependent effect | fold change (FC) [10]: 1 | fold change (FC) [11]: 1.24 | Activity [12]: Dose-dependent effect | IC50 ([12]; MDA-MB-231, 48 h): 22.4 µM | fold change (FC) [13]: 1.05 | fold change (FC) [14]: 1.25 | IC50 [15]: 39.5 µM | Activity [16]: 0.37% | Activity [17]: 34.45% | fold change (FC) [18]: 0.53 | fold change (FC) [19]: 0.17 | fold change (FC) [20]: 0.93 | Activity [21]: 1.23% | fold change (FC) [22]: 0.61 | fold change (FC) [23]: 1.15 | fold change (FC) [24]: 0.86 | Activity [25]: 62.65% | fold change (FC) [26]: 0.99 | Activity [27]: 0.07% | fold change (FC) [28]: 1.02 | fold change (FC) [29]: 0.42 | Activity [30]: 0.64% | fold change (FC) [31]: 0.46 | Activity [32]: 91.93% | fold change (FC) [33]: 1.16
